Reference: PubChem BioAssay AID1259407 (Chemical Carcinogenesis Research Information System (CCRIS), 2018)
The source made the active and inactive calls. No rule for the calls is given here.

Tested on: CCRIS mutagenicity, Ames/micronucleus/aberration tests
Test: CCRIS mutagenicity studies
[1] = Test System: AMES SALMONELLA TYPHIMURIUM, Strain/Indicator: TA98, Metabolic Activation: NONE, Method: PREINCUBATION
[2] = Test System: AMES SALMONELLA TYPHIMURIUM, Strain/Indicator: TA100, Metabolic Activation: NONE, Method: PREINCUBATION
[3] = Test System: AMES SALMONELLA TYPHIMURIUM, Strain/Indicator: TA102, Metabolic Activation: NONE, Method: PREINCUBATION
[4] = Test System: AMES SALMONELLA TYPHIMURIUM, Strain/Indicator: TA1535, Metabolic Activation: NONE, Method: PREINCUBATION
[5] = Test System: AMES SALMONELLA TYPHIMURIUM, Strain/Indicator: TA1537, Metabolic Activation: NONE, Method: PREINCUBATION
[6] = Test System: Mouse lymphoma, Strain/Indicator: L5178Y (tk+/tk-), Metabolic Activation: None, Method: Suspension/plate
[7] = Test System: Mouse lymphoma, Strain/Indicator: L5178Y (tk+/tk-), Metabolic Activation: Rat, Liver, S-9, Aroclor 1254, Method: Suspension/plate

NCCNC(=O)c1ccc(Cl)cn1
mutagenic call (Test System: AMES SALMONELLA TYPHIMURIUM, Strain/Indicator: TA97, Metabolic Activation: NONE, Method: PREINCUBATION): inactive; negative
mutagenic call (Test System: AMES SALMONELLA TYPHIMURIUM, Strain/Indicator: TA97, Metabolic Activation: NONE, Method: STANDARD PLATE): inactive; negative
mutagenic call (Test System: AMES SALMONELLA TYPHIMURIUM, Strain/Indicator: TA97, Metabolic Activation: RAT, LIVER, S-9, PHENOBARBITAL AND BETA-NAPHTHOFLAVONE, Method: PREINCUBATION): inactive; negative
mutagenic call (Test System: AMES SALMONELLA TYPHIMURIUM, Strain/Indicator: TA97, Metabolic Activation: RAT, LIVER, S-9, PHENOBARBITAL AND BETA-NAPHTHOFLAVONE, Method: STANDARD PLATE): inactive; negative
mutagenic call [1]: inactive; negative
mutagenic call (Test System: AMES SALMONELLA TYPHIMURIUM, Strain/Indicator: TA98, Metabolic Activation: NONE, Method: STANDARD PLATE): inactive; negative
mutagenic call (Test System: AMES SALMONELLA TYPHIMURIUM, Strain/Indicator: TA98, Metabolic Activation: RAT, LIVER, S-9, PHENOBARBITAL AND BETA-NAPHTHOFLAVONE, Method: PREINCUBATION): inactive; negative
mutagenic call (Test System: AMES SALMONELLA TYPHIMURIUM, Strain/Indicator: TA98, Metabolic Activation: RAT, LIVER, S-9, PHENOBARBITAL AND BETA-NAPHTHOFLAVONE, Method: STANDARD PLATE): inactive; negative
mutagenic call [2]: inactive; negative
mutagenic call (Test System: AMES SALMONELLA TYPHIMURIUM, Strain/Indicator: TA100, Metabolic Activation: NONE, Method: STANDARD PLATE): inactive; negative
mutagenic call (Test System: AMES SALMONELLA TYPHIMURIUM, Strain/Indicator: TA100, Metabolic Activation: RAT, LIVER, S-9, PHENOBARBITAL AND BETA-NAPHTHOFLAVONE, Method: PREINCUBATION): inactive; negative
mutagenic call (Test System: AMES SALMONELLA TYPHIMURIUM, Strain/Indicator: TA100, Metabolic Activation: RAT, LIVER, S-9, PHENOBARBITAL AND BETA-NAPHTHOFLAVONE, Method: STANDARD PLATE): inactive; negative
mutagenic call [3]: inactive; negative
mutagenic call (Test System: AMES SALMONELLA TYPHIMURIUM, Strain/Indicator: TA102, Metabolic Activation: NONE, Method: STANDARD PLATE): inactive; negative
mutagenic call (Test System: AMES SALMONELLA TYPHIMURIUM, Strain/Indicator: TA102, Metabolic Activation: RAT, LIVER, S-9, PHENOBARBITAL AND BETA-NAPHTHOFLAVONE, Method: PREINCUBATION): inactive; negative
mutagenic call (Test System: AMES SALMONELLA TYPHIMURIUM, Strain/Indicator: TA102, Metabolic Activation: RAT, LIVER, S-9, PHENOBARBITAL AND BETA-NAPHTHOFLAVONE, Method: STANDARD PLATE): inactive; negative
mutagenic call [4]: inactive; negative
mutagenic call (Test System: AMES SALMONELLA TYPHIMURIUM, Strain/Indicator: TA1535, Metabolic Activation: NONE, Method: STANDARD PLATE): inactive; negative
mutagenic call (Test System: AMES SALMONELLA TYPHIMURIUM, Strain/Indicator: TA1535, Metabolic Activation: RAT, LIVER, S-9, PHENOBARBITAL AND BETA-NAPHTHOFLAVONE, Method: PREINCUBATION): inactive; negative
mutagenic call (Test System: AMES SALMONELLA TYPHIMURIUM, Strain/Indicator: TA1535, Metabolic Activation: RAT, LIVER, S-9, PHENOBARBITAL AND BETA-NAPHTHOFLAVONE, Method: STANDARD PLATE): inactive; negative
mutagenic call [5]: inactive; negative
mutagenic call (Test System: AMES SALMONELLA TYPHIMURIUM, Strain/Indicator: TA1537, Metabolic Activation: NONE, Method: STANDARD PLATE): inactive; negative
mutagenic call (Test System: AMES SALMONELLA TYPHIMURIUM, Strain/Indicator: TA1537, Metabolic Activation: RAT, LIVER, S-9, PHENOBARBITAL AND BETA-NAPHTHOFLAVONE, Method: PREINCUBATION): inactive; negative
mutagenic call (Test System: AMES SALMONELLA TYPHIMURIUM, Strain/Indicator: TA1537, Metabolic Activation: RAT, LIVER, S-9, PHENOBARBITAL AND BETA-NAPHTHOFLAVONE, Method: STANDARD PLATE): inactive; negative
mutagenic call (Test System: AMES SALMONELLA TYPHIMURIUM, Strain/Indicator: TA1538, Metabolic Activation: NONE, Method: PREINCUBATION): inactive; negative
mutagenic call (Test System: AMES SALMONELLA TYPHIMURIUM, Strain/Indicator: TA1538, Metabolic Activation: NONE, Method: STANDARD PLATE): inactive; negative
mutagenic call (Test System: AMES SALMONELLA TYPHIMURIUM, Strain/Indicator: TA1538, Metabolic Activation: RAT, LIVER, S-9, PHENOBARBITAL AND BETA-NAPHTHOFLAVONE, Method: PREINCUBATION): inactive; negative
mutagenic call (Test System: AMES SALMONELLA TYPHIMURIUM, Strain/Indicator: TA1538, Metabolic Activation: RAT, LIVER, S-9, PHENOBARBITAL AND BETA-NAPHTHOFLAVONE, Method: STANDARD PLATE): inactive; negative
mutagenic call (Test System: CHINESE HAMSTER V-79, Strain/Indicator: V-79 (HPRT)/6-THIOGUANINE, Metabolic Activation: NONE): inactive; negative
mutagenic call (Test System: CHINESE HAMSTER V-79, Strain/Indicator: V-79 (HPRT)/6-THIOGUANINE, Metabolic Activation: RAT, LIVER, S-9, AROCLOR 1254): inactive; negative
mutagenic call (Test System: UDS RAT HEPATOCYTES, Strain/Indicator: THY INCORP, Metabolic Activation: NONE, Method: AUTORADIOGRAPHY): inactive; negative

CCC1(O)C(=O)OCc2c1cc1n(c2=O)Cc2cc3c(N)cccc3nc2-1 (stereo unspecified)
mutagenic call [6]: active; positive
mutagenic call [7]: active; positive

C=C(C)C1CC=C(CO)CC1 (stereo unspecified)
mutagenic call [6]: inactive; negative
mutagenic call [7]: inactive; positive. retest at same dose: negative

CCCCCCCCBr
mutagenic call [1]: inactive; negative
mutagenic call (Test System: AMES SALMONELLA TYPHIMURIUM, Strain/Indicator: TA98, Metabolic Activation: RAT LIVER S-9, PHENOBARBITAL AND BETA-NAPHTHOFLAVONE, Method: PREINCUBATION): inactive; negative
mutagenic call [2]: inactive; negative
mutagenic call (Test System: AMES SALMONELLA TYPHIMURIUM, Strain/Indicator: TA100, Metabolic Activation: RAT LIVER S-9, PHENOBARBITAL AND BETA-NAPHTHOFLAVONE, Method: PREINCUBATION): inactive; negative
mutagenic call [3]: inactive; negative
mutagenic call (Test System: AMES SALMONELLA TYPHIMURIUM, Strain/Indicator: TA102, Metabolic Activation: RAT LIVER S-9, PHENOBARBITAL AND BETA-NAPHTHOFLAVONE, Method: PREINCUBATION): inactive; negative
mutagenic call (Test System: AMES SALMONELLA TYPHIMURIUM, Strain/Indicator: TA104, Metabolic Activation: NONE, Method: PREINCUBATION): inactive; negative
mutagenic call (Test System: AMES SALMONELLA TYPHIMURIUM, Strain/Indicator: TA104, Metabolic Activation: RAT LIVER S-9, PHENOBARBITAL AND BETA-NAPHTHOFLAVONE, Method: PREINCUBATION): inactive; negative
mutagenic call [4]: inactive; negative
mutagenic call (Test System: AMES SALMONELLA TYPHIMURIUM, Strain/Indicator: TA1535, Metabolic Activation: RAT LIVER S-9, PHENOBARBITAL AND BETA-NAPHTHOFLAVONE, Method: PREINCUBATION): inactive; negative
mutagenic call [5]: inactive; negative
mutagenic call (Test System: AMES SALMONELLA TYPHIMURIUM, Strain/Indicator: TA1537, Metabolic Activation: RAT LIVER S-9, PHENOBARBITAL AND BETA-NAPHTHOFLAVONE, Method: PREINCUBATION): inactive; negative
mutagenic call (Test System: E.COLI, Strain/Indicator: WP2UVRA/PKM101, Metabolic Activation: NONE, Method: PREINCUBATION): inactive; negative
mutagenic call (Test System: E.COLI, Strain/Indicator: WP2UVRA/PKM101, Metabolic Activation: RAT LIVER S-9, PHENOBARBITAL AND BETA-NAPHTHOFLAVONE, Method: PREINCUBATION): inactive; negative
mutagenic call (Test System: E.COLI, Strain/Indicator: WP2UVRA, Metabolic Activation: NONE, Method: PREINCUBATION): inactive; negative
mutagenic call (Test System: E.COLI, Strain/Indicator: WP2UVRA, Metabolic Activation: RAT LIVER S-9, PHENOBARBITAL AND BETA-NAPHTHOFLAVONE, Method: PREINCUBATION): inactive; negative
